Molecules are shown by their SMILES. Like-named read-outs stand apart in the source and are kept apart here. Starred links: 1 amine or outer side, 2 acyl side, 3 side chain; linkers in the order of their positions; H or OH if unused. Positions of bridges follow the written chain, without caps; N, C: chain ends. Non-standard residues stand in square brackets, D forms with d. Residues, ends and D or L forms follow the SMILES beside them. *: point of attachment. NMePhe(4-COOH) = CN[C@@H](Cc1ccc(C(=O)O)cc1)C(=O)O; X1 = O=C([C@H](Cc1cccc(C(=O)[*:3])c1)N[*:1])[*:2]; Trp(7-aza) = N[C@@H](Cc1c[nH]c2ncccc12)C(=O)O; NH(CH2CH2O)8Me = COCCOCCOCCOCCOCCOCCOCCOCCN*; NMePhe(3-Cl) = CN[C@@H](Cc1cccc(Cl)c1)C(=O)O; NMeY = CN[C@@H](Cc1ccc(O)cc1)C(=O)O; NH(CH2CH2O)4Me = COCCOCCOCCOCCN*; PEG4 = NCCOCCOCCOCCOCCC(=O)O; Carboxymethyl = O=C(O)C*

Broadly, the Kd is a measure of binding affinity in units of concentration.

For this assay, the target named is T1, human transferrin receptor (hTfR) (Homo sapiens, UniProt P02786).
T1 construct: made in house
T1 sequence (P02786 89-760 limits assumed): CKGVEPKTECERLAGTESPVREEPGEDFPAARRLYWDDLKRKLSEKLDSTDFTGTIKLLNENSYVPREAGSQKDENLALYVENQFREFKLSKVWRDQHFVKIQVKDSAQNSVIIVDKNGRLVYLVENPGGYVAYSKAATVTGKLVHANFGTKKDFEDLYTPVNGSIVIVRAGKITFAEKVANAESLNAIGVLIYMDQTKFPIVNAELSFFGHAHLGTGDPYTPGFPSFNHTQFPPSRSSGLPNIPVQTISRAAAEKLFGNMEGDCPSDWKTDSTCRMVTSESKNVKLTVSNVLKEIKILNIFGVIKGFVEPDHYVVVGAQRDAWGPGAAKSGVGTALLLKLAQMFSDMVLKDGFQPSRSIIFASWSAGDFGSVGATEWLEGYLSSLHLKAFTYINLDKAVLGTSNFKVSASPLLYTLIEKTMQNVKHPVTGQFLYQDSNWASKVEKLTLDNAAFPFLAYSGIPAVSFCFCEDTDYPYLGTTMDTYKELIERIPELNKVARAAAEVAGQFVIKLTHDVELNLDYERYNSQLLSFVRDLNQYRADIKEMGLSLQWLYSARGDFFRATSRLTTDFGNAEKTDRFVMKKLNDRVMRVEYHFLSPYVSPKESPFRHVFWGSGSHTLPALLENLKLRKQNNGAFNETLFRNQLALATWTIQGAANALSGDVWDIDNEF
The experiment in a line: Evaluation of molecular interaction between transferrin receptor (hTfR) and peptide using surface plasmon resonance (SPR). Type of assay: binding. To be noted: surface plasmon resonance. The method, then: Evaluation Test of Molecular Interaction Between Transferrin Receptor (hTfR) and Peptide Using Surface Plasmon Resonance (SPR)
The intermolecular interactions of various synthesized peptides with the transferrin receptor (hTfR) by surface plasmon resonance (SPR) of the peptides were tested by the methods described below. Specific test methods are shown below.
NTA sensor chip (Global Life Sciences Technologies Japan K.K.) was inserted into BiacoreT200 (Global Life Sciences Technologies Japan K.K.), then the priming operation was performed three times by using running buffer containing: 10 mM HEPES pH 8.0 (Nacalai Tesque, Inc.), 150 mM NaCl (Nacalai Tesque, Inc.), 0.05% Tween 20 (Nacalai Tesque, Inc.), 0.1% BSA (SIGMA-ALDRICH) and 1.0% DMSO (FUJIFILM Wako Pure Chemical Corporation), and equilibrated at a flow rate of 30 μL/min. 350 mM EDTA solution was reacted at a flow rate of 10 μL/min for 60 seconds, 0.5 mM […] solution (Kishida Chemical Co., Ltd.) was reacted at a flow rate of 10 μL/min for 60 seconds, and then the NTA sensor chip was washed with 3 mM EDTA solution (Nacalai Tesque, Inc.) at a flow rate of 10 μL/min for 60 seconds. After mixing 50 μL each of 60 mM EDC solution (Global Life Science Technologies Japan K.K.) and 650 mM NHS solution (Global Life Science Technologies Japan K.K.), the reaction was carried out at a flow rate of 10 μL/min for 420 seconds. 150 μL of 0.5 μM hTfR dimer solution was prepared by dilution with running buffer and reacted at a flow rate of 10 μL/min for 300 seconds to immobilize hTfR on the NTA sensor chip. For the human transferrin receptor (hTfR), recombinant hTfR described in Example 2 of WO2018/124121 was used. After immobilization, capping was performed by reacting with 1.0 M ethanolamine solution (Global Life Sciences Technologies Japan K.K.) at a flow rate of 10 μL/min for 420 seconds. Peptide lysate prepared in DMSO solution to 10 mM was diluted with running buffer to be a final concentration of 10 μM peptide lysate, then peptide solutions of 100 nM, 50 nM, 25 nM, 10 nM, and 5 nM were prepared. Using the above samples, the kinetics of the peptide against hTfR was obtained by SPR measurement.
The kinetic evaluation model was single-cycle kinetics, and curve fitting was performed using Biacore T200 Evaluation Software Version 3.0 (Global Life Science Technologies Japan K.K.). The binding of the peptide to hTfR was evaluated by performing curve fitting on the obtained sensorgram by least squares method and obtaining the KD value.
For orientation: Surface plasmon resonance follows binding to a sensor surface in real time, without labels.

Where [1] appears, read: binding to hTfR, KD class symbol, read-out: SPR (KD value).

Take `CC[C@H](C)[C@@H]1NC(=O)[C@H](Cc2ccc(OC)cc2)NC(=O)[C@H](Cc2ccc(O)cc2)NC(=O)[C@H](CC(N)=O)NC(=O)[C@H](Cc2c[nH]c3ncccc23)NC(=O)[C@H](C(C)C)NC(=O)[C@H](Cc2cccc(Cl)c2)N(C)C(=O)[C@H](C(C)C)NC(=O)[C@H](C)NC(=O)CSC[C@@H](C(=O)NCCOCCOCCOCCOCCC(N)=O)NC(=O)[C@H](Cc2ccc(C(=O)NCCOCCOCCOCCOCCOCCOCCOCCOC)cc2)N(C)C(=O)[C@H](Cc2cccc(C(=O)NCCOCCOCCOCCOCCOCCOCCOCCOC)c2)NC(=O)[C@H](CCC(N)=O)NC(=O)[C@H](CCC(N)=O)NC(=O)[C@H]([C@@H](C)CC)NC1=O` [compound 228] ({CH2CO}-AV[NMePhe(3-Cl)]V[Trp(7-aza)]NYY(Me)IIQQ[X1](NH(CH2CH2O)8Me)[NMePhe(4-COOH)](NH(CH2CH2O)8Me)C[PEG4]-NH2; thioether N-15): the equilibrium dissociation constant (Kd) (peptide with linker, read-out: SPR (KD class for binding to hTfR)) lay within 1 to 100 nM.
For `CC[C@H](C)[C@@H]1NC(=O)[C@H](Cc2ccc(OCC(=O)O)cc2)NC(=O)[C@H](Cc2ccc(O)cc2)NC(=O)[C@H](CC(N)=O)NC(=O)[C@H](Cc2cn(CC(=O)O)c3ccccc23)NC(=O)[C@H](C(C)C)NC(=O)[C@H](Cc2ccccc2)N(C)C(=O)[C@H](C(C)C)NC(=O)[C@H](C)NC(=O)CSC[C@@H](C(=O)NCC(=O)N[C@H](CCC(=O)O)C(=O)N[C@H](CCC(=O)O)C(=O)N[C@H](CCC(=O)O)C(=O)N[C@H](CO)C(=O)N[C@H](CO)C(=O)N[C@@H](CCCCN=[N+]=[N-])C(N)=O)NC(=O)[C@H](Cc2ccc(O)cc2)N(C)C(=O)[C@H](Cc2ccc(O)cc2)NC(=O)[C@H](CCCNC(=N)N)NC(=O)[C@H](CCCNC(=N)N)NC(=O)[C@H]([C@@H](C)CC)NC1=O` [compound 42], the dissociation constant Kd under setting [1] was 1 to 100 nM.
`CC[C@H](C)[C@@H]1NC(=O)[C@H](Cc2ccc(OCC(=O)O)cc2)NC(=O)[C@H](Cc2ccc(O)cc2)NC(=O)[C@H](CC(N)=O)NC(=O)[C@H](Cc2cn(CC(=O)O)c3ccccc23)NC(=O)[C@H](C(C)C)NC(=O)[C@H](Cc2cccc(Cl)c2)N(C)C(=O)[C@H](C(C)C)NC(=O)[C@H](C)NC(=O)CSC[C@@H](C(=O)NCCOCCOCCOCCOCCC(N)=O)NC(=O)[C@H](Cc2ccc(O)cc2)N(C)C(=O)[C@H](Cc2ccncc2)NC(=O)[C@H](CCCNC(=N)N)NC(=O)[C@H](CCCNC(=N)N)NC(=O)[C@H]([C@@H](C)CC)NC1=O` [compound 76]: the Kd under setting [1] is 1 to 100 nM.
The same measure, in the same setting: the same measure for `CC[C@H](C)[C@@H]1NC(=O)[C@H](Cc2ccc(OCC(=O)O)cc2)NC(=O)[C@H](Cc2ccc(O)cc2)NC(=O)[C@H](CC(N)=O)NC(=O)[C@H](Cc2c[nH]c3ccccc23)NC(=O)[C@H](C(C)C)NC(=O)[C@H](Cc2cccc(Cl)c2)N(C)C(=O)[C@H](C(C)C)NC(=O)[C@H](C)NC(=O)CSC[C@@H](C(=O)NCCOCCOCCOCCOCCC(N)=O)NC(=O)[C@H](Cc2ccc(O)cc2)N(C)C(=O)[C@H](Cc2ccccc2)NC(=O)[C@H](CCC(N)=O)NC(=O)[C@H](CCC(=O)NCCOCCOCCOCCOC)NC(=O)[C@H]([C@@H](C)CC)NC1=O` [compound 123] ({CH2CO}-AV[NMePhe(3-Cl)]VWNYY(Carboxymethyl)IIE(NH(CH2CH2O)4Me)QF[NMeY]C[PEG4]-NH2; thioether N-15): 1 to 100 nM; for `CC[C@H](C)[C@@H]1NC(=O)[C@H](Cc2ccc(OCC(=O)O)cc2)NC(=O)[C@H](Cc2ccc(O)cc2)NC(=O)[C@H](CC(N)=O)NC(=O)[C@H](Cc2c[nH]c3ccccc23)NC(=O)[C@H](C(C)C)NC(=O)[C@H](Cc2cccc(Cl)c2)N(C)C(=O)[C@H](C(C)C)NC(=O)[C@H](C)NC(=O)CSC[C@@H](C(=O)NCCOCCOCCOCCOCCC(N)=O)NC(=O)[C@H](Cc2ccc(O)cc2)N(C)C(=O)[C@H](CCC(=O)NCCOCCOCCOCCOC)NC(=O)[C@H](CCCNC(=N)N)NC(=O)[C@H](CCC(=O)NCCOCCOCCOCCOC)NC(=O)[C@H]([C@@H](C)CC)NC1=O` [compound 124] ({CH2CO}-AV[NMePhe(3-Cl)]VWNYY(Carboxymethyl)IIE(NH(CH2CH2O)4Me)RE(NH(CH2CH2O)4Me)[NMeY]C[PEG4]-NH2; thioether N-15): 1 to 100 nM.

The values above are taken from patent US20260116920A1, “HUMAN TRANSFERRIN RECEPTOR BINDING PEPTIDE” (PEPTIDREAM INC., priority 2021, published 2026).
